{"source": "paper PMC12198282", "about": "“Application of a high-density microelectrode array assay using a 3D human iPSC-derived brain microphysiological system model for in vitro neurotoxicity screening of environmental compounds” (Archives of Toxicology, 2025)", "key": {"[1]": {"tested_on": "human iPSC-derived 3D BrainSpheres", "test": "BrainSphere MEA assay (HD-MEA, 13-day exposure, concentration-response)", "assay_type": "cell-based", "settings": "for EC (benchmark response 1.349 SD): 312 h; for AC50: concentration at 50% maximal activity, Supplement 3 prints it also for curves with hit call 0", "experimental": "A volume of 1 ml of Tergazyme (1% solution in deionized water) was added to each well of the MaxTwo 6-Well Plate (MaxWell Biosystems) and incubated overnight under constant gyratory shaking (88 RPM) at 37 °C and 5% CO2. The next day, Tergazyme solution was removed, and plates were washed with distilled water and ethanol. After remaining ethanol was evaporated, wells were washed with PBS. Then, 200 µl of Poly-D-Lysine (Gibco, A38904 - 01) was added on top of the electrodes and incubated at 37 °C and 5% CO2 for 3 h (humidified). Poly-D-Lysine was then removed, and wells were coated with 100 µl of 0.1 mg/ml laminin coating solution (Sigma-Aldrich, L2020 - 1 mg) and incubated for 2 h at 37 ℃ and 5% CO2 (humidified). The laminin was removed after incubation. Using a 1 ml micropipette, 1 ml of medium containing BrainSpheres (7 weeks differentiated), approximately 25 BrainSpheres per ml, was plated on top of the HD-MEA chip (Fig. 1A). Afterwards, the plate was placed in an incubator at 37 °C and 5% CO2 and moved in circles to accumulate the BrainSpheres on top of the electrode area (Fig. 1A). The plate was kept in an incubator (humidified) for 2 days to allow attachment of the BrainSpheres with no gyratory shaking of the plates.\nThe MaxTwo high-density microelectrode array system (MaxWell Biosystems AG, Zurich, Switzerland) was used to measure neural activity with MaxTwo 6-well plates, where every well includes an integrated chip with 26,400 platinum electrodes arranged in an area of 3.85 × 2.10 mm^2 ([…]) (Muller et al. [2015]). The data were recorded and analyzed with the MaxLab Live Software (version 22.2.22). First, the MaxLab live ActivityScan Assay was used to identify the activity and positioning of the BrainSpheres on the array by scanning all the 26,400 electrodes in 29 configurations in a well (Assay Parameters: Configuration = Full; Recording time per configuration = 60 s (s)). The settings gain = 512, high-pass-filter (HPF): ~ 1 Hz and spike threshold = 5 X root-mean square (RMS) noise were used for all HD-MEA recordings. Circular regions of interest (ROI) were manually selected in the Activity Map where neuronal activity was apparent by an increased activity (Fig. 2). Over the course of the 13-day experiment, the same selected regions and electrodes were measured using the MaxLab Live Network Assay (600 s recording time).\nA custom analysis framework was used to extract the MaxLab Live neuronal metrics for the individual BrainSpheres. For this, electrodes comprising a single ROI (i.e., individual BrainSphere; Fig. 2D) were grouped using distance-based clustering (fcluster method of Scipy library, Python 3.7) and neural metrics were calculated for the clustered electrodes for every ROI separately. Figure 2E presents a raster plot illustrating the activity associated with individual Regions of Interest (ROIs). […] Ten MaxLab Live neural metrics (endpoints) were evaluated from the MaxLab live ActivityScan and Network Assay in this study. See Table 3 for the endpoint definitions, tuned parameters, and activity type (general versus network connectivity).\nThe BrainSphere MEA assay measured changes in neural activity during a 13-day chemical exposure. The first recording day of the concentration–response screening protocol (day of exposure (DOE) 0) occurred after 7 weeks of BrainSphere differentiation, 48 h after plating on HD-MEA plates (Fig. 1B). The study included at least three biological replicates (one well per plate) from separate experiments (e.g., three different plates on three different days) and each well included multiple BrainSpheres which were considered technical replicates."}, "2D rat cortical cultures": {"tested_on": "2D rat cortical cultures", "settings": "cited from earlier work"}, "[2]": {"settings": "AUC over 13-day exposure, tcplfit2"}, "[3]": {"settings": "tcplfit2 BMD at benchmark response (1.349*SD of baseline controls)"}, "[4]": {"settings": "tcplfit2 output ACC, activity cutoff in Supplemental Table 1"}}, "note": "Read-outs that look alike come from different tables or passages of the source."}
{"smiles": "ClC1=C(Cl)[C@]2(Cl)[C@@H]3[C@@H]4C[C@@H]([C@H]5O[C@@H]45)[C@@H]3[C@@]1(Cl)C2(Cl)Cl", "note": "[Dieldrin]", "values": [{"measurement": "Difference of minimum potency between BrainSphere MEA assay and rNFA", "setting": "[1]; 5th percentile of AC50 values by chemical, above 0.5 = more potent in the rNFA", "result": "more than 0.5 log10 µM"}, {"measurement": "hitc Mean.Spheroid.Burst.ISI", "setting": "[1]; [2]", "result": 1}, {"measurement": "hitc Mean.Spheroid.Burst.Peak.Firing.Rate", "setting": "[1]; [2]", "result": 1}, {"measurement": "hitc Mean.Spheroid.Firing.Rate", "setting": "[1]; [2]", "result": 1}, {"measurement": "hitc Mean.Spheroid.IBI", "setting": "[1]; [2]", "result": 1}, {"measurement": "hitc Mean.Spheroid.Nonburst.ISI", "setting": "[1]; [2]", "result": 0}, {"measurement": "hitc Mean.Spheroid.Spikes.per.Burst", "setting": "[1]; [2]", "result": 1}, {"measurement": "hitc Mean.Spheroid.Spikes.per.Burst.per.Electrode", "setting": "[1]; [2]", "result": 1}, {"measurement": "hitc Spheroid.Burst.Frequency", "setting": "[1]; [2]", "result": 1}, {"measurement": "hitc Spheroid.Spike.Amplitude.90th.Percentile", "setting": "[1]; [2]", "result": 1}, {"measurement": "EC50", "setting": "[1]; Homo sapiens, 5th percentile across active AC50 values per chemical, read-out: Minimum potency", "result": 9.51, "unit": "µM"}, {"measurement": "EC (benchmark response 1.349 SD)", "setting": "[1]; Homo sapiens, tcplfit2 BMD at benchmark response (1.349*SD of baseline controls), read-out: BMD Mean.Spheroid.Burst.ISI", "result": 9.9, "unit": "µM"}, {"measurement": "EC (benchmark response 1.349 SD)", "setting": "[1]; Homo sapiens, tcplfit2 BMD at benchmark response (1.349*SD of baseline controls), read-out: BMD Mean.Spheroid.Nonburst.ISI", "result": 45, "unit": "µM"}, {"measurement": "AC50", "setting": "[1]; Homo sapiens, read-out: ac50 Mean.Spheroid.Burst.Duration", "result": 13, "unit": "µM"}, {"measurement": "AC50", "setting": "[1]; Homo sapiens, read-out: ac50 Mean.Spheroid.Burst.ISI", "result": 12, "unit": "µM"}, {"measurement": "AC50", "setting": "[1]; Homo sapiens, read-out: ac50 Mean.Spheroid.Burst.Peak.Firing.Rate", "result": 11.7, "unit": "µM"}, {"measurement": "AC50", "setting": "[1]; Homo sapiens, read-out: ac50 Mean.Spheroid.Firing.Rate", "result": 9.5, "unit": "µM"}, {"measurement": "AC50", "setting": "[1]; Homo sapiens, read-out: ac50 Mean.Spheroid.IBI", "result": 28, "unit": "µM"}, {"measurement": "AC50", "setting": "[1]; Homo sapiens, read-out: ac50 Mean.Spheroid.Nonburst.ISI", "result": 45, "unit": "µM"}, {"measurement": "AC50", "setting": "[1]; Homo sapiens, read-out: ac50 Mean.Spheroid.Spikes.per.Burst", "result": 12.3, "unit": "µM"}, {"measurement": "AC50", "setting": "[1]; Homo sapiens, read-out: ac50 Mean.Spheroid.Spikes.per.Burst.per.Electrode", "result": 11, "unit": "µM"}, {"measurement": "AC50", "setting": "[1]; Homo sapiens, read-out: ac50 Spheroid.Burst.Frequency", "result": 9.6, "unit": "µM"}, {"measurement": "AC50", "setting": "[1]; Homo sapiens, read-out: ac50 Spheroid.Spike.Amplitude.90th.Percentile", "result": 21, "unit": "µM"}, {"measurement": "EC50", "setting": "[1]; Homo sapiens, mean across active AC50 values per chemical, read-out: Mean potency", "result": 14.3, "unit": "µM"}, {"measurement": "AC50", "setting": "[1]; read-out: ac50 Mean.Spheroid.Burst.Duration", "result": 12.9, "unit": "µM"}, {"measurement": "AC50", "setting": "[1]; read-out: ac50 Mean.Spheroid.Burst.ISI", "result": 12.2, "unit": "µM"}, {"measurement": "AC50", "setting": "[1]; read-out: ac50 Mean.Spheroid.Firing.Rate", "result": 9.45, "unit": "µM"}, {"measurement": "AC50", "setting": "[1]; read-out: ac50 Mean.Spheroid.IBI", "result": 28.2, "unit": "µM"}, {"measurement": "AC50", "setting": "[1]; read-out: ac50 Mean.Spheroid.Spikes.per.Burst.per.Electrode", "result": 11.2, "unit": "µM"}, {"measurement": "AC50", "setting": "[1]; read-out: ac50 Spheroid.Burst.Frequency", "result": 9.6, "unit": "µM"}, {"measurement": "AC50", "setting": "[1]; read-out: ac50 Spheroid.Spike.Amplitude.90th.Percentile", "result": 20.8, "unit": "µM"}, {"measurement": "Percent active", "setting": "[1]; metrics active out of the total number of metrics screened", "result": 90, "unit": "%"}, {"measurement": "BMD Mean.Spheroid.Burst.Peak.Firing.Rate", "setting": "[1]; [3]", "result": 9.9, "unit": "µM"}, {"measurement": "BMD Mean.Spheroid.Firing.Rate", "setting": "[1]; [3]", "result": 9.3, "unit": "µM"}, {"measurement": "BMD Mean.Spheroid.IBI", "setting": "[1]; [3]", "result": 27, "unit": "µM"}, {"measurement": "BMD Mean.Spheroid.Spikes.per.Burst", "setting": "[1]; [3]", "result": 11, "unit": "µM"}, {"measurement": "BMD Mean.Spheroid.Spikes.per.Burst.per.Electrode", "setting": "[1]; [3]", "result": 9.9, "unit": "µM"}, {"measurement": "BMD Spheroid.Burst.Frequency", "setting": "[1]; [3]", "result": 9.8, "unit": "µM"}, {"measurement": "BMD Spheroid.Spike.Amplitude.90th.Percentile", "setting": "[1]; [3]", "result": 17, "unit": "µM"}, {"measurement": "ACC Mean.Spheroid.Burst.ISI", "setting": "[1]; [4]", "result": 8.4, "unit": "µM"}, {"measurement": "ACC Mean.Spheroid.Burst.Peak.Firing.Rate", "setting": "[1]; [4]", "result": 9.6, "unit": "µM"}, {"measurement": "ACC Mean.Spheroid.Firing.Rate", "setting": "[1]; [4]", "result": 11, "unit": "µM"}, {"measurement": "ACC Mean.Spheroid.IBI", "setting": "[1]; [4]", "result": 28, "unit": "µM"}, {"measurement": "ACC Mean.Spheroid.Nonburst.ISI", "setting": "[1]; [4]", "result": 52, "unit": "µM"}, {"measurement": "ACC Mean.Spheroid.Spikes.per.Burst", "setting": "[1]; [4]", "result": 13, "unit": "µM"}, {"measurement": "ACC Mean.Spheroid.Spikes.per.Burst.per.Electrode", "setting": "[1]; [4]", "result": 10, "unit": "µM"}, {"measurement": "ACC Spheroid.Burst.Frequency", "setting": "[1]; [4]", "result": 9.2, "unit": "µM"}, {"measurement": "ACC Spheroid.Spike.Amplitude.90th.Percentile", "setting": "[1]; [4]", "result": 20, "unit": "µM"}, {"measurement": "Hits", "setting": "[1]; total number of active endpoints out of 10 MEA activity metrics, 13-day exposure", "result": 9}, {"measurement": "hitc CCTE_Shafer_MEA_dev_LDH", "setting": "2D rat cortical cultures", "result": 1}, {"measurement": "AC50", "setting": "2D rat cortical cultures; read-out: ac50 CCTE_Shafer_MEA_dev_LDH, rNFA mc5, cytotoxicity LDH", "result": 11.3, "unit": "µM"}]}
